Reference: patent US20240158412A1 (Faxian Therapeutics, LLC, priority 2021, published 2024)

Target: USP7 (Homo sapiens, UniProt Q93009)
Test: biochemical
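Also: fluorescence intensity readout of USP7 enzymatic activity, reaction incubated 90 min at room temperature.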

USP7, sequence (Q93009 whole entry): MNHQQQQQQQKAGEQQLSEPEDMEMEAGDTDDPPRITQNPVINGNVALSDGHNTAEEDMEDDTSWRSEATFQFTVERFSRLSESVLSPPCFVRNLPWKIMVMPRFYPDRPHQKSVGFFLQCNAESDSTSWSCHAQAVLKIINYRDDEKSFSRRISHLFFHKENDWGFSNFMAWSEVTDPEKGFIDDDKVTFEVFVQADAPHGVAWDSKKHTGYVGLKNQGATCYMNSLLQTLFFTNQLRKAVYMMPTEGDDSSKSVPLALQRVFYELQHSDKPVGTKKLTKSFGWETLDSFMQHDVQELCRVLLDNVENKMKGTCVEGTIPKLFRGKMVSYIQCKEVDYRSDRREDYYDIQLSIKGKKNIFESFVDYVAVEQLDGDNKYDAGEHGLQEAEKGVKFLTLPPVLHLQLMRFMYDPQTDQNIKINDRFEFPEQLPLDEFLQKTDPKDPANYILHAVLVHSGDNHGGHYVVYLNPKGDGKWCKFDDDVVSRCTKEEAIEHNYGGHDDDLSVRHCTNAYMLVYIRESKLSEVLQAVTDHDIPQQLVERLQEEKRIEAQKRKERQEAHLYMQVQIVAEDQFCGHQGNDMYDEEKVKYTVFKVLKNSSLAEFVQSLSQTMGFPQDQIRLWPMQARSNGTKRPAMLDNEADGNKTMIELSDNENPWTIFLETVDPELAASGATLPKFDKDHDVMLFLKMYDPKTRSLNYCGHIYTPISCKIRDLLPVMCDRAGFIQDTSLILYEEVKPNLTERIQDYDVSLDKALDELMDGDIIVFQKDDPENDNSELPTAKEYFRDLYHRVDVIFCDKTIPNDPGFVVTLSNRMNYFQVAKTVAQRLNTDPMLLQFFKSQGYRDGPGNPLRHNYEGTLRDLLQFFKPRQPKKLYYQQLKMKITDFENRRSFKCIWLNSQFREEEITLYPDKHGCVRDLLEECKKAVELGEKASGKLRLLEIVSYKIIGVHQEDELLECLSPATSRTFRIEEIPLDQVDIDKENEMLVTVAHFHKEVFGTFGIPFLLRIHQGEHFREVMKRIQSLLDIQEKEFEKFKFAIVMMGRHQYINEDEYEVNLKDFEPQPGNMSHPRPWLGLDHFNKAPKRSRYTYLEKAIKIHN

`CCn1c(N(C)C)cc(=O)n(Cc2cc3nccc(-c4cc(C#N)cc5c4N([C@@H]4CNC(C)(C)C4)CCC5)c3s2)c1=O` [Example 126, (S)-8-(2-((4-(dimethylamino)-3-ethyl-2,6-dioxo-2,3-dihydropyrimidin-1(6H)-yl)methyl)thieno[3,2-b]pyridin-7-yl)-1-(5,5-dimethylpyrrolidin-3-yl)-1,2,3,4-tetrahydroquinoline-6-carbonitrile] and `CC(C)c1cnn(Cc2cc3nccc(-c4cc(C#N)cc5c4N([C@@H]4CNC(C)(C)C4)CCC5)c3s2)c(=O)c1` [Example 129, (S)-1-(5,5-dimethylpyrrolidin-3-yl)-8-(2-((4-isopropyl-6-oxopyridazin-1(6H)-yl)methyl)thieno[3,2-b]pyridin-7-yl)-1,2,3,4-tetrahydroquinoline-6-carbonitrile] cannot be ordered by IC50: less than 0.01 µM for the first, less than 0.01 µM for the second.

`CC1(C)C[C@H](N2CCCc3cc(C#N)cc(-c4ccnc5cc(CN6C(=O)CN(C7CC(F)(F)C7)C6=O)sc45)c32)CN1` [Example 127, (S)-8-(2-((3-(3,3-difluorocyclobutyl)-2,5-dioxoimidazolidin-1-yl)methyl)thieno[3,2-b]pyridin-7-yl)-1-(5,5-dimethylpyrrolidin-3-yl)-1,2,3,4-tetrahydroquinoline-6-carbonitrile] and `CC1(C)C[C@H](N2CCCc3cc(C#N)cc(-c4ccnc5cc(CN6C(=O)CN(C7CC7)C6=O)sc45)c32)CN1` [Example 131, (S)-8-(2-((3-cyclopropyl-2,5-dioxoimidazolidin-1-yl)methyl)thieno[3,2-b]pyridin-7-yl)-1-(5,5-dimethylpyrrolidin-3-yl)-1,2,3,4-tetrahydroquinoline-6-carbonitrile] cannot be ordered by IC50: less than 0.01 µM for the first, less than 0.01 µM for the second.

`CC1(C)C[C@H](N2CCCc3cc(C#N)cc(-c4ccnc5cc(Cn6ncc(C7CC7)cc6=O)sc45)c32)CN1` [Example 128, (S)-8-(2-((4-cyclopropyl-6-oxopyridazin-1(6H)-yl)methyl)thieno[3,2-b]pyridin-7-yl)-1-(5,5-dimethylpyrrolidin-3-yl)-1,2,3,4-tetrahydroquinoline-6-carbonitrile] and `CC1(C)C[C@H](N2CCOc3cc(C#N)cc(-c4ccnc5cc(Cn6ncc(C7CC7)cc6=O)sc45)c32)CN1` [Example 135, (S)-5-(2-((4-cyclopropyl-6-oxopyridazin-1(6H)-yl)methyl)thieno[3,2-b]pyridin-7-yl)-4-(5,5-dimethylpyrrolidin-3-yl)-3,4-dihydro-2H-benzo[b][1,4]oxazine-7-carbonitrile] cannot be ordered by IC50: less than 0.01 µM for the first, less than 0.01 µM for the second.

Compared with `CC1(C)C[C@H](N2CCCc3cc(C#N)cc(-c4ccnc5cc(CN6C(=O)CCCC6=O)sc45)c32)CN1` [Example 130, (S)-1-(5,5-dimethylpyrrolidin-3-yl)-8-(2-((2,6-dioxopiperidin-1-yl)methyl)thieno[3,2-b]pyridin-7-yl)-1,2,3,4-tetrahydroquinoline-6-carbonitrile], `O=C1CCC(=O)N1Cc1cc2nccc(-c3cc(Cl)cc4c3N(C3CC5(CNC5)C3)CCC4)c2s1` [Example 137, 1-[[7-[1-(2-azaspiro[3.3]heptan-6-yl)-6-chloro-3,4-dihydro-2H-quinolin-8-yl]thieno[3,2-b]pyridin-2-yl]methyl]pyrrolidine-2,5-dione] is higher in IC50: less than 0.01 µM for the first, 0.01 to 0.1 µM for the second.

`Cc1cnn(Cc2cc3nccc(-c4cc(C#N)cc5c4N([C@@H]4CNC(C)(C)C4)CCO5)c3s2)c(=O)c1` [Example 134, (S)-4-(5,5-dimethylpyrrolidin-3-yl)-5-(2-((4-methyl-6-oxopyridazin-1(6H)-yl)methyl)thieno[3,2-b]pyridin-7-yl)-3,4-dihydro-2H-benzo[b][1,4]oxazine-7-carbonitrile] and `CC1(C)C[C@H](N2CCOc3cc(C#N)cc(-c4ccnc5cc(Cn6ncc(C(C)(C)C)cc6=O)sc45)c32)CN1` [Example 136, (S)-5-(2-((4-(tert-butyl)-6-oxopyridazin-1(6H)-yl)methyl)thieno[3,2-b]pyridin-7-yl)-4-(5,5-dimethylpyrrolidin-3-yl)-3,4-dihydro-2H-benzo[b][1,4]oxazine-7-carbonitrile] cannot be ordered by IC50: less than 0.01 µM for the first, less than 0.01 µM for the second.

First: CN1CC2(CC(N3CCCc4cc(Cl)cc(-c5ccnc6cc(CN7C(=O)CCC7=O)sc56)c43)C2)C1 [Example 138, 1-[[7-[6-chloro-1-(2-methyl-2-azaspiro[3.3]heptan-6-yl)-3,4-dihydro-2H-quinolin-8-yl]thieno[3,2-b]pyridin-2-yl]methyl]pyrrolidine-2,5-dione]
Second: CN1C[C@@H](N2CCCc3cc(Cl)cc(-c4ccnc5cc(CN6C(=O)CCC6=O)sc45)c32)CC12CCC2 [Example 140, (S)-1-((7-(6-chloro-1-(5-methyl-5-azaspiro[3.4]octan-7-yl)-1,2,3,4-tetrahydroquinolin-8-yl)thieno[3,2-b]pyridin-2-yl)methyl)pyrrolidine-2,5-dione]
The IC50 of the first is higher: 0.01 to 0.1 µM for the first, less than 0.01 µM for the second.

`O=C1CCC(=O)N1Cc1cc2nccc(-c3cc(Cl)cc4c3N([C@@H]3CN(CCO)C5(CCC5)C3)CCC4)c2s1` [Example 141, (S)-1-((7-(6-chloro-1-(5-(2-hydroxyethyl)-5-azaspiro[3.4]octan-7-yl)-1,2,3,4-tetrahydroquinolin-8-yl)thieno[3,2-b]pyridin-2-yl)methyl)pyrrolidine-2,5-dione] and `O=C1CCC(=O)N1Cc1cc2nccc(-c3cc(Cl)cc4c3N([C@@H]3CN(CCF)C5(CCC5)C3)CCC4)c2s1` [Example 142, (S)-1-((7-(6-chloro-1-(5-(2-fluoroethyl)-5-azaspiro[3.4]octan-7-yl)-1,2,3,4-tetrahydroquinolin-8-yl)thieno[3,2-b]pyridin-2-yl)methyl)pyrrolidine-2,5-dione] cannot be ordered by IC50: less than 0.01 µM for the first, less than 0.01 µM for the second.

First: O=C1CCC(=O)N1Cc1cc2nccc(-c3cc(Cl)cc4c3N([C@@H]3CN(CCc5nnn[nH]5)C5(CCC5)C3)CCC4)c2s1 [Example 144, (S)-1-((7-(1-(5-(2-(1H-tetrazol-5-yl)ethyl)-5-azaspiro[3.4]octan-7-yl)-6-chloro-1,2,3,4-tetrahydroquinolin-8-yl)thieno[3,2-b]pyridin-2-yl)methyl)pyrrolidine-2,5-dione]
Second: O=C1C2CC2C(=O)N1Cc1cc2nccc(-c3cc(Cl)cc4c3N([C@@H]3CNC5(CCC5)C3)CCC4)c2s1 (stereo partly drawn) [Example 145, 3-((7-(6-chloro-1-((S)-5-azaspiro[3.4]octan-7-yl)-1,2,3,4-tetrahydroquinolin-8-yl)thieno[3,2-b]pyridin-2-yl)methyl)-3-azabicyclo[3.1.0]hexane-2,4-dione]
The IC50 of the first is higher: 0.01 to 0.1 µM for the first, less than 0.01 µM for the second. The second is the more potent here.

First: O=c1ccn(C2CC(F)(F)C2)c(=O)n1Cc1cc2nccc(-c3cc(Cl)cc4c3N([C@@H]3CNC5(CCC5)C3)CCC4)c2s1 [Example 146, (S)-3-((7-(6-chloro-1-(5-azaspiro[3.4]octan-7-yl)-1,2,3,4-tetrahydroquinolin-8-yl)thieno[3,2-b]pyridin-2-yl)methyl)-1-(3,3-difluorocyclobutyl)pyrimidine-2,4(1H,3H)-dione]
Second: CC1(C)C2C(=O)N(Cc3cc4nccc(-c5cc(Cl)cc6c5N([C@@H]5CNC7(CCC7)C5)CCC6)c4s3)C(=O)C21 (stereo partly drawn) [Example 147, 3-((7-(6-chloro-1-((S)-5-azaspiro[3.4]octan-7-yl)-1,2,3,4-tetrahydroquinolin-8-yl)thieno[3,2-b]pyridin-2-yl)methyl)-6,6-dimethyl-3-azabicyclo[3.1.0]hexane-2,4-dione]
The IC50 of the first is lower: less than 0.01 µM for the first, 0.01 to 0.1 µM for the second. The first is the more potent here.
